Measurements published in US12558329B2 (New York University, priority 2021, dated 2026).
“Also recorded” adds a separate entry of the source. Peptide text beside a SMILES is read from it. * marks the point of attachment. Cbz = O=C(OCc1ccccc1)*

Key:
[1] = system: MIAPACA2 cells; assay: 13C9-Tyr tracing in MIAPACA2 cells with the indicated reagents; type: cell-based, human
Text: 4-HMA biosynthesis has only been described in some bacteria and in rabbits. […] The production of 4-HPPA occurs in the first step of tyrosine (Tyr) catabolism via tyrosine transaminase (TAT). In rabbits, 4-HMA was proposed to be synthesized from the degradation of tyramine and octopamine by dopamine β-hydroxylase (Dbh) and monoamine oxidase (Mao) (FIG. 9A)^13. Tyramine is also a Tyr-derived metabolite. Therefore, all known substrates required to generate 4-HMA are derived from Tyr. In addition, Tyr can also be made from phenylalanine (Phe) by Phe hydroxylase (PAH) in mammalian liver cells^14. To elucidate the human 4-HMA biosynthetic pathway, the fates of ^13C9-Tyr and ^13C6-Phe were traced in human cells. […] Additionally, the generation of 4-HMA by […] would result in the incorporation of a single ^18O at the Ca position of the carboxylic acid of 4-HMA (FIG. 9A). However, this was not observed by ^18O labelling (FIG. 8B). Therefore, it was unlikely that 4-HMA biosynthesis from octopamine and tyramine catabolism occurred in the present system.
Unexpectedly, 4-HMA levels also were lower in hyperoxic (21%) conditions compared to 3% O2, reflecting either decreased production or increased consumption of this metabolite at 21% O2.
Therefore, CoQ10 was used as an indirect readout of 4-HB production. To assess the ability of human cells to biosynthesize CoQ10, cells were labelled with ^13C6-Phe or ^13C9-Tyr. CoQ10 was completely biosynthesized from Tyr, but not Phe, in human cells (FIG. 11B).
(§1) For metabolomics, briefly, cells were washed in 4° C. 0.9% saline and metabolites were extracted with 46% methanol:23% H2O:[…] chloroform that contained a labelled amino acid standard mix (MSK-A2-1.2, Cambridge Isotope Laboratories, Inc.). Enzymatic assay samples were extracted using 80% methanol: 20% H2O that contained labelled amino acid standards. Extracts were placed into 1.5 mL Eppendorf tubes, vortexed at 4° C. for 10 min and centrifuged at 4° C. for 10 min at 17,200×g in a microcentrifuge. The aqueous phase was transferred to vials for GC-MS or Eppendorf tubes for LC-MS. Polar samples were evaporated in a SpeedVac and samples were resolved by GC-MS or LC-MS. Lipid samples were dried using a stream of N2 (for ^18O labelling studies) or air. Metabolite and lipid extracts were submitted to the NYULMC Metabolomics Core Resource Laboratory.
For polar metabolomics, the LC column was a Millipore ZIC-pHILIC (2.1×150 […], 5 μm bead size) coupled to a Dionex UltiMate 3000 system. The column oven temperature was held at 25° C. The flow rate was 100 μL/min, and the injection volume was 1 μL. Buffer A was 10 mM ammonium carbonate in water, pH 9, and Buffer B was neat acetonitrile. The gradient profile was 80-20% B (0-30 min), 20-80% B (30-31 min), and 80-80% B (31-42 min). MS Analyses were carried out on a Thermo Q Exactive HF mass spectrometer using a heated electrospray ionization (HESI) source. The method duration was 30 min using a polarity-switching, top 5 method. The spray voltage for both positive and negative ion modes was 3.5 kV. The capillary temperature was 320° C. with a maximum spray current of 100 ρA. The full MS scan was carried out at 120,000 resolution with a scan range of 67-1000 m/z. For ^18O2 labelling experiments, full MS scans were carried out at 240,000 resolution at the same scan range. Tandem MS spectra were obtained at 15,000 resolution. All data were acquired in profile mode. Peak heights were analyzed using Xcalibur (ThermoFisher Scientific).
Lipid metabolomics were acquired using a Waters CSH-C18 (2.1×100 mm, 1.7 μm) column coupled to a Dionex UltiMate 3000 system. The column oven temperature was held at 55° C. The flow rate was 300 μL/min and the injection volume was 1 μL. Buffer A was 60:40 acetonitrile:water, 0.1% formic acid and Buffer B was 90:10 isopropanol:acetonitrile, 10 mM ammonium formate. […]

[2] = system: MIAPACA2 cells; assay: 18O2-GASSP labelling of MIAPACA2 cells treated with MG132, IOX1, DFO or ascorbate; type: cell-based, human
Experimental: As additional controls, MIAPACA2 cells were treated with an iron chelator (DFO, FIG. 5E-5F), a proteasome inhibitor (MG132) to induce proteotoxic stress, and physiological levels of ascorbate, an antioxidant, to determine the effects of ROS on ^18O-labelling. Labelling of ^18O γ-butyrobetaine was blocked by IOX1 and DFO, consistent with the fact that trimethyllysine hydroxylase (TMLH) is an iron-dependent dioxygenase (FIGS. 7A-7D). […] Total levels of ^18O labelled methionine sulfoxide increased upon MG132 treatment and decreased following ascorbate treatment (FIGS. 7I-7M)^10.
(§2) All steps involved in setting up labelling with ^18O2 were performed at room temperature and inside a chemical fume hood. The procedure may vary depending on the type and number of tissue culture plates in the chamber and the amount of media in the plates. Users must test the system by using ^16O2:CO2:N2 or other unlabelled gases to optimize conditions for their needs and avoid consumption of costly labelled gases. Cells were treated with or without 5 μM MG132, 500 μM IOX1, 250 μM DFO, or 70 μM ascorbate, before placing tissue culture plates into the modular incubator chamber (MIC) containing a wireless oxygen sensor and a 15 cm dish of water to maintain humidity. Next, the clamps were closed to form an air-tight seal between the lid and platform of the MIC. […] N2 flushing was repeated for a total of three times, or until the sensor in the chamber stabilized at 0% O2 for 10 minutes.
Next, the inlet valve was opened and the ^18O2:5% CO2:N2 gaseous mixture was flushed into the system at a rate of 2.5 L/min. Subsequently, the outlet valve was immediately opened to allow gas flow out of the chamber, and to release the pressure in the system. The chamber was injected with the ^18O2:5% CO2:N2 gaseous mixture for 1 minute before the inlet and outlet valves were closed simultaneously. The chamber was allowed to equilibrate for 5 minutes. This process was repeated seven times, or until the desired oxygen concentration was reached and was stable. For 3%, 1%, and 0.2% ^18O2 labelling studies, the chamber was infused with 5%:5%:90%, 1.5%:5%:93.5%, and 0.5%:5%:94.5% ^18O2:CO2:N2, respectively. The ^18O2-infused MIC was then placed in a 37° C., 5% CO2 tissue culture incubator for 24 hours. The oxygen concentration in the chamber was monitored regularly. Oxygen measurements after 20 hours was not feasible due to the battery life of the sensor. At the end of the experiment, the chamber was opened inside a chemical fume hood before metabolite extraction.
as §1
For polar metabolomics, the LC column was a Millipore ZIC-pHILIC (2.1×150 […], 5 μm bead size) coupled to a Dionex UltiMate 3000 system. The column oven temperature was held at 25° C. The flow rate was 100 μL/min, and the injection volume was 1 μL. Buffer A was 10 mM ammonium carbonate in water, pH 9, and Buffer B was neat acetonitrile. The gradient profile was 80-20% B (0-30 min), 20-80% B (30-31 min), and 80-80% B (31-42 min). MS Analyses were carried out on a Thermo Q Exactive HF mass spectrometer using a heated electrospray ionization (HESI) source. […]

[3] = system: human cells; assay: 18O2-GASSP labelling of human cells, untargeted polar metabolomics, with or without IOX1; type: cell-based; details: 18O labelling of the metabolite in cells treated with IOX1 (dioxygenase inhibitor), 24 hours
Experimental: To map the molecular fate of O2 in metabolic pathways in living cells, GASSP was used to carry out ^18O2 labelling in cell lines of different tissue origins at ^18O2 concentrations that represented physiological (3%), hypoxic (1%), and severely hypoxic (0.2%) oxygen tensions found in tissues and tumours^7. At the end of each run, polar metabolites were extracted and untargeted polar metabolomics using liquid chromatography-high resolution mass spectrometry (LC-MS) were carried out to identify metabolites labeled with ^18O.
A list of unique features identified by untargeted metabolomics that were >0.25% (natural abundance of ^18O is 0.2%) labelled by ^18O atoms in each cell line at each oxygen tension was generated. In addition, background signal was controlled by requiring that ^18O labeled peaks had to have a signal that was two-fold greater than naturally occurring isotopes found in non-labelled (^16O) metabolite cell extracts. To determine the proportion of unique ^18O labelled features that were due to dioxygenase activity, cells were treated with a pan-dioxygenase inhibitor (IOX1) at concentrations that inhibit iron-dependent dioxygenases, such as the HIF1α prolyl hydroxylases (FIGS. 5E-5F) and identified ^18O labelled polar metabolites. This list of ^18O metabolites was generated by identifying all features in the unlabelled samples, filtering these features against blank samples to remove background peaks, and calculating the fractional ^18O labelling with the assumption that a metabolite would have no more than three oxygen atoms labelled, followed by manual curation of labelled features (FIG. 1B and FIG. 5G). […] These ^18O-labelled features were termed the oxy-metabolome.
To determine the identities of the labeled metabolites, the list of ^18O labelled features was annotated to their corresponding unlabelled metabolites using retention time matching, tandem mass spectrometry (MS2) fragmentation patterns, and database searching.
as §2

SMILES	IOX1 Sensitive (Yes/No) [3]	also measured
CC(=O)N(O)CCCCCNC(=O)CCC(=O)N(O)CCCCCNC(=O)CCC(=O)N(O)CCCCCN [DFO, N-[5-[[4-[5-[acetyl(hydroxy)amino]pentylamino]-4-oxobutanoyl]-hydroxyamino]pentyl]-N′-(5-aminopentyl)-N′-hydroxybutanediamide]		13C9-Tyr-derived 4-HMA ([1]; 3% 16O2, 24 hours): attenuated or ablated; also recorded: severely inhibited; CoQ10 labelling from 13C9-Tyr (incorporation of tyrosine into CoQ10) ([1]; 3% 16O2, 24 hours): eliminated; also recorded: completely blocked; 4-HPLA pools ([1]; 13C-Tyr, 3% O2, 24 hours): increased; 18O labelling of methionine ([2]; 3%, 1%, 0.2% 18O2, 24 hours): less sensitive; also recorded: only partially blocked; 18O labelling of γ-butyrobetaine ([2]; 3%, 1%, 0.2% 18O2, 24 hours): sensitive; also recorded: blocked; 18O labelling of 4-HMA ([2]; MIAPACA2, 3%, 1%, 0.2% 18O2, 24 hours, 500 μM IOX1, 250 μM DFO): sensitive; also recorded: significantly attenuated; 4-HMA levels ([2]; MIAPACA2, 18O2 labelling, 24 hours, 500 μM IOX1, 250 μM DFO, 70 μM ascorbate): significantly attenuated
CC(C)C[C@@H](C=O)NC(=O)[C@H](CC(C)C)NC(=O)[C@H](CC(C)C)NC(=O)OCc1ccccc1 [MG132] (Cbz-Leu-Leu-Leu-aldehyde)		Total levels of 18O labelled methionine sulfoxide ([2]; 5 μM MG132, 70 μM ascorbate, 24 hours): increased
CCCCC(=O)O[C@H](CC(=O)[O-])C[N+](C)(C)C [Metabolite 4, Valerylcarnitine]	Yes	
CSCC[C@H](N)C(=O)O [Metabolite 13, Methionine]	Yes	
CC(=O)N[C@H]1C(O)O[C@H](CO)[C@@H](O)[C@@H]1O (stereo partly drawn) [Metabolite 16, N-Acetyl-D-glucosamine]	No	
CC(=O)N[C@@H](CO)[C@@H](O)[C@@H](O)[C@H](O)CO [Metabolite 17, N-Acetyl-D-galactosaminitol]	Yes	
C[N+](C)(C)CCCC(=O)[O-] [Metabolite 21, g-Butyrobetaine]	Yes	
C[S+]([O-])CC[C@H](N)C(=O)O (some centres unmarked) [Metabolite 23, Methionine Sulfoxide]	Yes	
O=C(O)[C@@H]1C[C@@H](O)CN1 [Metabolite 24, Hydroxyproline]	Yes	
NC(=O)C1=CN([C@@H]2O[C@H](COP(=O)(O)OP(=O)(O)OC[C@H]3O[C@@H](n4cnc5c(N)ncnc54)[C@H](O)[C@@H]3O)[C@@H](O)[C@H]2O)C=CC1 [Metabolite 28, NADH]	Yes	
CN(CC(=O)O)C(=N)N [Metabolite 29, Creatine]	Yes	
NCCS(=O)O [Metabolite 32, Hypotaurine]	Yes	
N[C@@H](CCC(=O)O)C(=O)O [Metabolite 33, Glutamate]	Yes	
O=c1ccn([C@@H]2O[C@H](COP(=O)(O)O)[C@@H](O)[C@H]2O)c(=O)[nH]1 [Metabolite 36, UMP]	Yes	
C[S+](CC[C@H](N)C(=O)[O-])C[C@H]1O[C@@H](n2cnc3c(N)ncnc32)[C@H](O)[C@@H]1O (some centres unmarked) [Metabolite 41, S-adenosyl methionine]	Yes	
N[C@@H](CCSC[C@H](N)C(=O)O)C(=O)O [Metabolite 42, Cystathionine]	Yes	
O=C[C@@H](O)[C@@H](O)[C@H](O)[C@H](O)COP(=O)(O)O [Metabolite 46, D-Mannose 6-phosphate]	Yes	
